Where two headings read alike, the source gives them in different places. Starred links: 1 amine or outer side, 2 acyl side, 3 side chain; linkers in the order of their positions; H or OH if unused. Non-standard residues stand in square brackets, D forms with d. Residues, ends and D or L forms follow the SMILES beside them. Groups on a side chain read outwards from the residue. *: point of attachment. C20 diacid = O=C(O)CCCCCCCCCCCCCCCCCCC(=O)*; γGlu = O=C(O)[C@H](CCC(=O)[*:2])N[*:1]; Nle = CCCC[C@H](N)C(=O)O; AEEA = NCCOCCOCC(=O)O
Tests used:
hCRHR2 = target: T1, hCRHR2 (Homo sapiens, UniProt Q13324); assay: HTRF cAMP assay, determination of hCRHR2 potency (peptide libraries 5 conc., purified peptides 11 conc.); format: cell-based
T1 sequence (Q13324 1-411): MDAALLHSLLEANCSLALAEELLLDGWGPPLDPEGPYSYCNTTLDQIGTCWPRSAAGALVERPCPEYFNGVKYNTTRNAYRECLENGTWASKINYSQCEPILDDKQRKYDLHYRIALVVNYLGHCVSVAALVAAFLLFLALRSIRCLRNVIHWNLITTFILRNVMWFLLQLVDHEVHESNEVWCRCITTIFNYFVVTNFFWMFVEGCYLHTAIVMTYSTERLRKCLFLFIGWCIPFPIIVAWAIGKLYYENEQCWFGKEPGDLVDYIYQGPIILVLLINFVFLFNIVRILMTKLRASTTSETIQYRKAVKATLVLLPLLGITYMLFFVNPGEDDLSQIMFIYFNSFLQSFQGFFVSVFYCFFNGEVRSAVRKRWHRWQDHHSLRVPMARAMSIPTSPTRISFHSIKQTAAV
Method in brief: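 CHO-K1 cells stably expressing human CRHR2, thawed from frozen stocks just before use and run in suspension; cAMP measured by competitive HTRF immunoassay (cryptate anti-cAMP, d2-cAMP). Agonist peptides tested at 5 (libraries) or 11 (purified) concentrations; EC50 from sigmoid variable-slope nonlinear regression.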

hCRHR1 = target: T2, hCRHR1 (Homo sapiens, UniProt P34998); assay: HTRF cAMP assay, determination of hCRHR1 potency (peptide libraries 5 conc., purified peptides 11 conc.); format: cell-based
T2 sequence (P34998 24-415): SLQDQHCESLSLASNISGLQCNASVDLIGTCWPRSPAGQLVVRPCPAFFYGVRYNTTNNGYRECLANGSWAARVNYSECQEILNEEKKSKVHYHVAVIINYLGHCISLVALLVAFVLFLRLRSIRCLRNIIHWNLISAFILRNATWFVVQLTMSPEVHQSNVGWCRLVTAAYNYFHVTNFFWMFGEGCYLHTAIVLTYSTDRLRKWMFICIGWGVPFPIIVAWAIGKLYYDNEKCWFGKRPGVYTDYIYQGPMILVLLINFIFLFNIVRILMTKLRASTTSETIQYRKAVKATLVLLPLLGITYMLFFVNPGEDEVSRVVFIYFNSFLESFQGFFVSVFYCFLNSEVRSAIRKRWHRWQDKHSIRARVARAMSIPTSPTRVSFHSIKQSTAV
Method in brief: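 CHO-K1 cells stably expressing human CRHR1, thawed from frozen stocks just before use, were stimulated in suspension with agonist peptides. cAMP was measured by HTRF competitive immunoassay (cryptate anti-cAMP antibody vs d2-cAMP).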

[1] = Table 3, matched molecular pairs X^38 L vs Nle, peptide library of Example 4, read-out: hCRHR2 pEC50 (converted)
[2] = Table 3, matched molecular pairs X^38 L vs Nle, peptide library of Example 4, read-out: hCRHR1 pEC50 (converted)
[3] = library peptides, matched molecular pairs L vs Nle in position X^38, read-out: Potency hCRHR2 pEC50 (converted)
[4] = library peptides, matched molecular pairs L vs Nle in position X^38, read-out: Potency hCRHR1 pEC50 (converted)

EC50 (hCRHR2; [1])	EC50 (hCRHR1; [2])	EC50 (hCRHR2; [3])	EC50 (hCRHR1; [4])	Selectivity ratio (hCRHR1/ hCRHR2) (hCRHR2; Table 5)	EC50 (hCRHR2; Table 5, purified peptides, read-out: hCRHR2 EC50)	Structure (SMILES)
0.316 nM	25.1 nM					CCCC[C@H](NC(=O)[C@@H](NC(=O)[C@H](CCC(=O)O)NC(=O)[C@H](C)NC(=O)[C@H](CC(N)=O)NC(=O)[C@@H](NC(=O)[C@H](CCCCNC(=O)COCCOCCNC(=O)COCCOCCNC(=O)CC[C@H](NC(=O)CC[C@H](NC(=O)CCCCCCCCCCCCCCCCCCC(=O)O)C(=O)O)C(=O)O)NC(=O)[C@H](C)NC(=O)[C@H](CCC(N)=O)NC(=O)[C@H](CCC(=O)O)NC(=O)[C@H](CCCNC(=N)N)NC(=O)[C@H](CCC(N)=O)NC(=O)[C@H](C)NC(=O)[C@H](CCC(N)=O)NC(=O)[C@H](C)NC(=O)[C@H](CCCNC(=N)N)NC(=O)[C@H](C)NC(=O)[C@H](CCC(N)=O)NC(=O)[C@H](CCC(=O)O)NC(=O)[C@H](CC(C)C)NC(=O)[C@H](CC(C)C)NC(=O)[C@@H](NC(=O)[C@H](CCC(N)=O)NC(=O)[C@H](CC(C)C)NC(=O)[C@H](CC(C)C)NC(=O)CNC(=O)[C@@H](NC(=O)[C@@H]1CCCN1C(=O)[C@@H](NC(=O)[C@H](CC(=O)O)NC(=O)[C@H](CC(C)C)NC(=O)[C@H](CO)NC(=O)[C@H](CC(C)C)NC(=O)[C@@H](NC(=O)[C@@H](N)[C@@H](C)CC)C(C)C)C(C)C)[C@@H](C)CC)[C@@H](C)CC)[C@@H](C)O)[C@@H](C)CC)C(=O)N[C@@H](C)C(=O)N[C@@H](CCC(=O)O)C(=O)N[C@H](C(N)=O)C(C)C [SEQ ID NO: 32] (H-IVLSLDVPIGLLQILLEQARAQAQREQAK([AEEA-AEEA-γGlu-γGlu-C20 diacid])TNAEI[Nle]AEV-NH2)
		0.794 nM	158000 nM			CCCC[C@H](NC(=O)[C@@H](NC(=O)[C@H](CCC(=O)O)NC(=O)[C@H](C)NC(=O)[C@H](CC(N)=O)NC(=O)[C@@H](NC(=O)[C@H](CCCCNC(=O)COCCOCCNC(=O)COCCOCCNC(=O)CC[C@H](NC(=O)CC[C@H](NC(=O)CCCCCCCCCCCCCCCCCCC(=O)O)C(=O)O)C(=O)O)NC(=O)[C@H](C)NC(=O)[C@H](CCC(=O)O)NC(=O)[C@H](CCC(=O)O)NC(=O)[C@H](CCCNC(=N)N)NC(=O)[C@H](C)NC(=O)[C@H](C)NC(=O)[C@H](CCCNC(=N)N)NC(=O)[C@H](C)NC(=O)[C@H](CCCNC(=N)N)NC(=O)[C@H](C)NC(=O)[C@H](CCC(N)=O)NC(=O)[C@H](CCC(=O)O)NC(=O)[C@H](CC(C)C)NC(=O)[C@H](CC(C)C)NC(=O)[C@@H](NC(=O)[C@H](CCC(N)=O)NC(=O)[C@H](CC(C)C)NC(=O)[C@H](CC(C)C)NC(=O)CNC(=O)[C@@H](NC(=O)[C@@H]1CCCN1C(=O)[C@@H](NC(=O)[C@H](CC(=O)O)NC(=O)[C@H](CC(C)C)NC(=O)[C@H](CO)NC(=O)[C@H](CC(C)C)NC(=O)[C@@H](NC(=O)[C@@H](N)[C@@H](C)CC)C(C)C)C(C)C)[C@@H](C)CC)[C@@H](C)CC)[C@@H](C)O)[C@@H](C)CC)C(=O)N[C@@H](C)C(=O)N[C@@H](CCC(=O)O)C(=O)N[C@H](C(N)=O)[C@@H](C)CC [compound 75] (H-IVLSLDVPIGLLQILLEQARARAAREEAK([AEEA-AEEA-γGlu-γGlu-C20 diacid])TNAEI[Nle]AEI-NH2)
		0.158 nM	5.01 nM			CCCC[C@H](NC(=O)[C@@H](NC(=O)[C@H](CCC(=O)O)NC(=O)[C@H](C)NC(=O)[C@H](CC(N)=O)NC(=O)[C@@H](NC(=O)[C@H](CCCCNC(=O)COCCOCCNC(=O)COCCOCCNC(=O)CC[C@H](NC(=O)CC[C@H](NC(=O)CCCCCCCCCCCCCCCCCCC(=O)O)C(=O)O)C(=O)O)NC(=O)[C@H](C)NC(=O)[C@H](CCC(N)=O)NC(=O)[C@H](CCC(N)=O)NC(=O)[C@H](CCCNC(=N)N)NC(=O)[C@H](CC(C)C)NC(=O)[C@H](C)NC(=O)[C@H](CCC(=O)O)NC(=O)[C@H](C)NC(=O)[C@H](CCCNC(=N)N)NC(=O)[C@H](C)NC(=O)[C@H](CCC(N)=O)NC(=O)[C@H](CCC(=O)O)NC(=O)[C@H](CC(C)C)NC(=O)[C@H](CC(C)C)NC(=O)[C@@H](NC(=O)[C@H](CCC(N)=O)NC(=O)[C@H](CC(C)C)NC(=O)[C@H](CC(C)C)NC(=O)CNC(=O)[C@@H](NC(=O)[C@@H]1CCCN1C(=O)[C@@H](NC(=O)[C@H](CC(=O)O)NC(=O)[C@H](CC(C)C)NC(=O)[C@H](CO)NC(=O)[C@H](CC(C)C)NC(=O)[C@@H](NC(=O)[C@@H](N)[C@@H](C)CC)C(C)C)C(C)C)[C@@H](C)CC)[C@@H](C)CC)[C@@H](C)O)[C@@H](C)CC)C(=O)N[C@@H](C)C(=O)N[C@@H](CCC(=O)O)C(=O)N[C@H](C(N)=O)C(C)C [compound 59] (H-IVLSLDVPIGLLQILLEQARAEALRQQAK([AEEA-AEEA-γGlu-γGlu-C20 diacid])TNAEI[Nle]AEV-NH2)
0.251 nM	200 nM			107	0.52 nM	CCCC[C@H](NC(=O)[C@@H](NC(=O)[C@H](CCC(=O)O)NC(=O)[C@H](C)NC(=O)[C@H](CC(N)=O)NC(=O)[C@@H](NC(=O)[C@H](CCCCNC(=O)COCCOCCNC(=O)COCCOCCNC(=O)CC[C@H](NC(=O)CC[C@H](NC(=O)CCCCCCCCCCCCCCCCCCC(=O)O)C(=O)O)C(=O)O)NC(=O)[C@H](C)NC(=O)[C@H](CCC(N)=O)NC(=O)[C@H](CCC(=O)O)NC(=O)[C@H](CCCNC(=N)N)NC(=O)[C@H](C)NC(=O)[C@H](C)NC(=O)[C@H](CCCNC(=N)N)NC(=O)[C@H](C)NC(=O)[C@H](CCCNC(=N)N)NC(=O)[C@H](C)NC(=O)[C@H](CCC(N)=O)NC(=O)[C@H](CCC(=O)O)NC(=O)[C@H](CC(C)C)NC(=O)[C@H](CC(C)C)NC(=O)[C@@H](NC(=O)[C@H](CCC(N)=O)NC(=O)[C@H](CC(C)C)NC(=O)[C@H](CC(C)C)NC(=O)CNC(=O)[C@@H](NC(=O)[C@@H]1CCCN1C(=O)[C@@H](NC(=O)[C@H](CC(=O)O)NC(=O)[C@H](CC(C)C)NC(=O)[C@H](CO)NC(=O)[C@H](CC(C)C)NC(=O)[C@@H](NC(=O)[C@@H](N)[C@@H](C)CC)C(C)C)C(C)C)[C@@H](C)CC)[C@@H](C)CC)[C@@H](C)O)[C@@H](C)CC)C(=O)N[C@@H](C)C(=O)N[C@@H](CCC(=O)O)C(=O)N[C@H](C(N)=O)C(C)C [SEQ ID NO: 45] (H-IVLSLDVPIGLLQILLEQARARAAREQAK([AEEA-AEEA-γGlu-γGlu-C20 diacid])TNAEI[Nle]AEV-NH2)
		0.1 nM	1260 nM			CCCC[C@H](NC(=O)[C@@H](NC(=O)[C@H](CCC(=O)O)NC(=O)[C@H](C)NC(=O)[C@H](CC(N)=O)NC(=O)[C@@H](NC(=O)[C@H](CCCCNC(=O)COCCOCCNC(=O)COCCOCCNC(=O)CC[C@H](NC(=O)CC[C@H](NC(=O)CCCCCCCCCCCCCCCCCCC(=O)O)C(=O)O)C(=O)O)NC(=O)[C@H](C)NC(=O)[C@H](CCC(N)=O)NC(=O)[C@H](CCC(=O)O)NC(=O)[C@H](CCCNC(=N)N)NC(=O)[C@H](C)NC(=O)[C@H](CO)NC(=O)[C@H](CCCNC(=N)N)NC(=O)[C@H](C)NC(=O)[C@H](CCCNC(=N)N)NC(=O)[C@H](C)NC(=O)[C@H](CCC(N)=O)NC(=O)[C@H](CCC(=O)O)NC(=O)[C@H](CC(C)C)NC(=O)[C@H](CC(C)C)NC(=O)[C@@H](NC(=O)[C@H](CCC(N)=O)NC(=O)[C@H](CC(C)C)NC(=O)[C@H](CC(C)C)NC(=O)CNC(=O)[C@@H](NC(=O)[C@@H]1CCCN1C(=O)[C@@H](NC(=O)[C@H](CC(=O)O)NC(=O)[C@H](CC(C)C)NC(=O)[C@H](CO)NC(=O)[C@H](CC(C)C)NC(=O)[C@@H](NC(=O)[C@@H](N)[C@@H](C)CC)C(C)C)C(C)C)[C@@H](C)CC)[C@@H](C)CC)[C@@H](C)O)[C@@H](C)CC)C(=O)N[C@@H](C)C(=O)N[C@@H](CCC(=O)O)C(=O)N[C@H](C(N)=O)C(C)C [compound 61] (H-IVLSLDVPIGLLQILLEQARARSAREQAK([AEEA-AEEA-γGlu-γGlu-C20 diacid])TNAEI[Nle]AEV-NH2)

— patent EP4810052A2, “HCRHR2 SELECTIVE POLYPEPTIDES” (Gubra A/S, priority 2023, dated 2026)
